Experimental data: ChEMBL document CHEMBL5338769, “Discovery of Norisoboldine Analogue III11 as a Novel and Potent Aryl Hydrocarbon Receptor Agonist for the Treatment of Ulcerative Colitis” (J Med Chem, 2023)
Calls of active or inactive are those of the source. No cut-off for these calls is given here.

Key:
[1] = Cmax in Sprague-Dawley rat at 30 mg/kg, po measured at 120 min by LC-MS/MS analysis; type: ADME, organism-based; design: dose 30 mg/kg, time 120 min, route po; conditions: in vivo
[2] = Induction of cell differentiation in C57BL/6 mouse naive regulatory T cells assessed as increase in cell frequency at 3 uM incubated for 72 hrs by flow cytometric analysis (reference value: 24.9%); type: functional
[3] = system: Mus musculus; test: Anti-colitis activity against DSS-induced ulcerative colitis C57BL/6 mouse model assessed as amelioration of inflammation severity in colon at 10 to 20 mg/kg, po administered once a day for 10 days by H&E staining based histopathological analysis; type: functional, organism-based; conditions: dose 10-20 mg/kg, time 10.0 day
[4] = system: Mus musculus; test: Anti-colitis activity against DSS-induced ulcerative colitis C57BL/6 mouse model assessed as amelioration of mucosal architecture score by measuring granulation in colon at 10 to 20 mg/kg, po administered once a day for 10 days by H&E staining based histopathological analysis; type: functional, organism-based; conditions: dose 10-20 mg/kg, time 10.0 day
[5] = system: Mus musculus; test: Anti-colitis activity in DSS-induced ulcerative colitis C57BL/6 mouse model assessed as increase in CD4+CD25+Foxp3+ Treg cell ratio in mesenteric lymph nodes at 10 mg/kg, po administered once a day for 10 days by flow cytometric analysis (reference value: 4.5 %); type: functional; conditions: time 10 day
[6] = system: Mus musculus; test: Anti-colitis activity against DSS-induced ulcerative colitis C57BL/6 mouse model assessed as decrease in disease activity index score at 20 mg/kg, po administered once a day for 10 days; type: functional, organism-based; conditions: time 10.0 day
[7] = Upregulation of GATA3 expression level in DSS-induced ulcerative colitis C57BL/6 mouse model assessed as fold change at 20 mg/kg, po administered once a day for 10 days by qRT-PCR analysis; type: functional; conditions: time 10 day
[8] = Cmax in Sprague-Dawley rat at 3 mg/kg, iv measured at 120 min by LC-MS/MS analysis; type: ADME, organism-based; design: time 120 min, dose 3 mg/kg, route iv; conditions: in vivo
[9] = Apparent oral clearance in Sprague-Dawley rat at 3 mg/kg, iv measured upto 1440 min by LC-MS/MS analysis; type: ADME, organism-based; conditions: in vivo, 24 h
[10] = system: Mus musculus; test: Anti-colitis activity against DSS-induced ulcerative colitis C57BL/6 mouse model assessed as recovery of colon length at 20 mg/kg, po administered once a day for 10 days; type: functional, organism-based; conditions: time 10.0 day
[11] = system: Mus musculus; test: Anti-colitis activity in DSS-induced ulcerative colitis C57BL/6 mouse model assessed as CD4+CD25+Foxp3+ Treg cell percentage in spleen at 10 mg/kg, po administered once a day for 10 days by flow cytometric analysis (reference value: 3.3%); type: functional; conditions: time 10 day
[12] = Tmax in Sprague-Dawley rat at 30 mg/kg, po measured upto 1440 min by LC-MS/MS analysis; type: ADME, organism-based; conditions: in vivo
[13] = Apparent oral clearance in Sprague-Dawley rat at 30 mg/kg measured upto 1440 min by LC-MS/MS analysis; type: ADME, organism-based; conditions: in vivo, 24 h
[14] = Induction of cell differentiation in C57BL/6 mouse naive regulatory T cells assessed as increase in IL-10 mRNA level by measuring fold change at 3 uM incubated for 72 hrs by qRT-PCR analysis; type: functional
[15] = target: T1, Aryl hydrocarbon receptor (Mus musculus, UniProt P30561); test: Activation of AhR transcription in C57BL/6 mouse naive T cells assessed as increase in UGT1A1 mRNA expression at 1 to 3 uM by qRT-PCR analysis; type: cell-based; conditions: t cell, dose 1-3 µM
T1 sequence (P30561 whole entry): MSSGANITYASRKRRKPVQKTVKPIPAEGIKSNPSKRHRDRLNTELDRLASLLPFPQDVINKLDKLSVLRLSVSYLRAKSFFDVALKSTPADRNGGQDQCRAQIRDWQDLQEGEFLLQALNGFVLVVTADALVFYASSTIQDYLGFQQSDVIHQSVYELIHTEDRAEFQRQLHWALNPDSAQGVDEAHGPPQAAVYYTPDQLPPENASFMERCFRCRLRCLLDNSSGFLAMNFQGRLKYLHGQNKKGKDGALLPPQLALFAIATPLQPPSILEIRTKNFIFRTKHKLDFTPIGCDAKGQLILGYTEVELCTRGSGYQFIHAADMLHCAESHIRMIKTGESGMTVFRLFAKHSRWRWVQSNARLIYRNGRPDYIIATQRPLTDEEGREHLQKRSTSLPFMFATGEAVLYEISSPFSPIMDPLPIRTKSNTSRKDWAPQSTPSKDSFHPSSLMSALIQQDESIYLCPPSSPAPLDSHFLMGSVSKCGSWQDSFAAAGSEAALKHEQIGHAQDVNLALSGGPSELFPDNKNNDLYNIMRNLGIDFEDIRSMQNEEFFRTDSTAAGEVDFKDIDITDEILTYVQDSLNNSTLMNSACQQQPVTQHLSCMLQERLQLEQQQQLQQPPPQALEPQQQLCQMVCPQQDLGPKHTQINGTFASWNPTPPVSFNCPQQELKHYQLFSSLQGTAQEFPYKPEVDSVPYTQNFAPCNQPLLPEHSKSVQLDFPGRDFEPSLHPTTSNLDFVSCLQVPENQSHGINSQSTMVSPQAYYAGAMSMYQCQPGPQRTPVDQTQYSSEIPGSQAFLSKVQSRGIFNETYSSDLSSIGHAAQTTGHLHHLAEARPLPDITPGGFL

[16] = system: Mus musculus; test: Anti-colitis activity in DSS-induced ulcerative colitis C57BL/6 mouse model assessed as increase in CD4+CD25+Foxp3+ Treg cell ratio in mesenteric lymph nodes at 20 mg/kg, po administered once a day for 10 days by flow cytometric analysis (reference value: 4.5 %); type: functional; conditions: time 10 day
[17] = Protein binding in rat plasma at 10.74 ug/ml of total concentration measured after 12 hrs by ultrafiltration based HPLC analysis; type: ADME, cell-free; conditions: at 10.74 µg/mL, read-out: PPB (converted)
[18] = system: Mus musculus; test: Anti-colitis activity against DSS-induced ulcerative colitis C57BL/6 mouse model assessed as amelioration of epithelial change score by measuring cryptitis in colon at 10 to 20 mg/kg, po administered once a day for 10 days by H&E staining based histopathological analysis; type: functional, organism-based; conditions: dose 10-20 mg/kg, time 10.0 day
[19] = system: Mus musculus; test: Anti-colitis activity in DSS-induced ulcerative colitis C57BL/6 mouse model assessed as CD4+CD25+Foxp3+ Treg cell percentage in spleen at 20 mg/kg, po administered once a day for 10 days by flow cytometric analysis (reference value: 3.3%); type: functional; conditions: time 10 day
[20] = system: Mus musculus; test: Anti-colitis activity against DSS-induced ulcerative colitis C57BL/6 mouse model assessed as increase in Foxp3 mRNA level at 20 mg/kg, po administered once a day for 10 days by qRT-PCR analysis; type: functional, organism-based; conditions: time 10.0 day
[21] = system: Mus musculus; test: In vivo activation of AhR in C57BL/6 mouse assessed as increase in CYP1A1 mRNA expression at 10 to 20 mg/kg, po administered once a day for 10 days by qRT-PCR analysis; type: functional, organism-based; conditions: dose 10-20 mg/kg, time 10.0 day
[22] = Protein binding in rat plasma at 48.02 ug/ml of total concentration measured after 12 hrs by ultrafiltration based HPLC analysis; type: ADME, cell-free; conditions: at 48.02 µg/mL, read-out: PPB (converted)
[23] = AUC(0 to infinity) in Sprague-Dawley rat at 30 mg/kg, po measured upto 1440 min by LC-MS/MS analysis; type: ADME, organism-based; design: time < 1440 min, dose 30 mg/kg, route po; conditions: in vivo

With `COc1cc2c3c(c1)-c1ccc(O)cc1CC3NCC2` (stereo not drawn) the Cmax [1] was 789 ng/mL, the Activity [2] was 35.4% and the Activity [3] was “Active”. The Activity [4] was “Active”, the Activity [5] was 7.4% and the Activity [6] was “Active”. The “fold change (FC)” value [7] was 1.14, the Cmax [8] was 396 ng/mL and the CL/F [9] was 0.01 mg/(ng/ml)/min. The Activity [10] was “Active”, the Activity [11] was 3.2% and the Tmax [12] was 2 h. The CL/F [13] was 0 mg/(ng/ml)/min, the “fold change (FC)” value [14] was 2.4 and the Activity [15] was “Active”. For the same molecule, the Activity [16] was 8.5%, the fraction unbound at 12 h, 10.74 ug/ml [17] was 0.134 and the Activity [18] was “Active”. The Activity [19] was 4%, the Activity [20] was “Active” and the Activity [21] was “Active”. For the same molecule, the fraction unbound at 12 h, 48.02 ug/ml [22] was 0.139 and the AUC(0-inf) [23] was 8520 ng·h/mL.
